The source of these data is patent US20150307520A1, “NOVEL HETEROARYL AND HETEROCYCLE COMPOUNDS, COMPOSITIONS AND METHODS THEREOF” (HUTCHISON MEDIPHARMA LIMITED, priority 2012, published 2015).

Common to all, as to type: biochemical
In one test the target is p110β/p85α (Homo sapiens, UniProt P42338). The test is described as follows: Transcreener KINASE Assay, kinase inhibition of p110β/p85α. The conditions noted are these: for PI3Kβ IH % @ 1 uM: 1 uM test compound; for IC50: read-out: PI3Kβ IC50. An outline of the steps:
(§1)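 Recombinant human PI3K heterodimers (p110/p85α) incubated with compound (2% DMSO final) in HEPES/NaCl/EGTA/CHAPS/MgCl2/DTT buffer with 30 uM PIP2 and 10 uM ATP (as added) for 80 min at room temperature.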

The target of another test is p110δ/p85α (Homo sapiens, UniProt O00329). The test is described as follows: Transcreener KINASE Assay, kinase inhibition of p110δ/p85α. As to conditions: for PI3Kδ IH % @ 1 uM: 1 uM test compound; for IC50: read-out: PI3Kδ IC50. An outline of the steps: as §1
Sequence of p110δ/p85α (O00329 whole entry, canonical isoform): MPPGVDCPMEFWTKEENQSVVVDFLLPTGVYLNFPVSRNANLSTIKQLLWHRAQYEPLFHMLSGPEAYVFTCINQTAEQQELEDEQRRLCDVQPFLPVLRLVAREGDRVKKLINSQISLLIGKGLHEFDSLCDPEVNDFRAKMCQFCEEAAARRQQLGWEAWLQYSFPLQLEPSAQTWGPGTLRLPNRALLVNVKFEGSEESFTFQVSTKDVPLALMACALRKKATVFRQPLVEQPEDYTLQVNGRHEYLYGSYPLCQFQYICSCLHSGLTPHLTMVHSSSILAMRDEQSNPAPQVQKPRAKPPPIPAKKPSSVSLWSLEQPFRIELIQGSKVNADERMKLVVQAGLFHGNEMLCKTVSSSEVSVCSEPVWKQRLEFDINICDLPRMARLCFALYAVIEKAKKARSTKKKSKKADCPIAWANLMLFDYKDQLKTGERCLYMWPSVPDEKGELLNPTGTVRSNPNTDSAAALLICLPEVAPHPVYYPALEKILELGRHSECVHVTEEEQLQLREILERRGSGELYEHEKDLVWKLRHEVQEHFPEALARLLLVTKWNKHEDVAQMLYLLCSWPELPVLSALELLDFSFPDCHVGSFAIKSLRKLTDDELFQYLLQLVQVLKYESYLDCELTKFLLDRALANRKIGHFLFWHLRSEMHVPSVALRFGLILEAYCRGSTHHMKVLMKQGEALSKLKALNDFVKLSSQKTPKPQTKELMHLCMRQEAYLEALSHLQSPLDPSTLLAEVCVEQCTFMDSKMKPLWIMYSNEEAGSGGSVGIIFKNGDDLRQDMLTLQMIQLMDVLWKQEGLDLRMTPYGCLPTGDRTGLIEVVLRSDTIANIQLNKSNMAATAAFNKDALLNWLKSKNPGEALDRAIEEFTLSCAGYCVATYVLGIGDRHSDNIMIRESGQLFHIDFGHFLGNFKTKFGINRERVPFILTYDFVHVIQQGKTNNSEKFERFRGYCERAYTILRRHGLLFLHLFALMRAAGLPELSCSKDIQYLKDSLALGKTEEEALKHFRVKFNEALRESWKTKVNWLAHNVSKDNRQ
Sequence of p110δ/p85α (P27986 whole entry partner, canonical isoform): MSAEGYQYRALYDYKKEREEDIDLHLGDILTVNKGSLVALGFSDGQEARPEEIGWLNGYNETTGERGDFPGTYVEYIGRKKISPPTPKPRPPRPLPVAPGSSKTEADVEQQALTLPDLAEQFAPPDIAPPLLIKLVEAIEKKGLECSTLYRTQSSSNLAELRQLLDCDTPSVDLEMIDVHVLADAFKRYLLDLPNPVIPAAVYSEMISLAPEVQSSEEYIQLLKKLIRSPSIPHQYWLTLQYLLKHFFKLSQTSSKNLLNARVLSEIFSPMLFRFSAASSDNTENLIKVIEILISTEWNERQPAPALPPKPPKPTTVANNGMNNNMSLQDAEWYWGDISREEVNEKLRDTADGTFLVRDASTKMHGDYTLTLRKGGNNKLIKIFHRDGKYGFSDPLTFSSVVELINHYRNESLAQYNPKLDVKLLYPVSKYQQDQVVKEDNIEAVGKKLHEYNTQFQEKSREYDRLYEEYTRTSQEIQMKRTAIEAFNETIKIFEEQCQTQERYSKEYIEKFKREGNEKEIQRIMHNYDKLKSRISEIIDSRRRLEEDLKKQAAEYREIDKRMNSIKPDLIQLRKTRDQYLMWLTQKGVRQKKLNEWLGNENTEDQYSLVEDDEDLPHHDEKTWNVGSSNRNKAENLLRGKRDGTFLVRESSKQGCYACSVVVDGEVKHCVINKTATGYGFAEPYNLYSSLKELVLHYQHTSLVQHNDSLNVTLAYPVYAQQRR
Another test has as its target p110γ (Homo sapiens, UniProt P48736). The experiment in a line: Transcreener KINASE Assay, kinase inhibition of p110γ. The conditions noted are these: for PI3Kγ IH % @ 1 uM: 1 uM test compound; for IC50: read-out: PI3Kγ IC50. An outline of the steps: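 ADP-detecting fluorescence polarization immunoassay run as two-step endpoint: kinase reaction for 80 min, detection for 60 min, both at room temperature. Enzymes are recombinant p110 isoforms with p85α, except p110γ. IC50s derived from fitted inhibition curves.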

Usually IC50 stands for the concentration that gives 50% inhibition.

Sequence of p110β/p85α (P42338 whole entry): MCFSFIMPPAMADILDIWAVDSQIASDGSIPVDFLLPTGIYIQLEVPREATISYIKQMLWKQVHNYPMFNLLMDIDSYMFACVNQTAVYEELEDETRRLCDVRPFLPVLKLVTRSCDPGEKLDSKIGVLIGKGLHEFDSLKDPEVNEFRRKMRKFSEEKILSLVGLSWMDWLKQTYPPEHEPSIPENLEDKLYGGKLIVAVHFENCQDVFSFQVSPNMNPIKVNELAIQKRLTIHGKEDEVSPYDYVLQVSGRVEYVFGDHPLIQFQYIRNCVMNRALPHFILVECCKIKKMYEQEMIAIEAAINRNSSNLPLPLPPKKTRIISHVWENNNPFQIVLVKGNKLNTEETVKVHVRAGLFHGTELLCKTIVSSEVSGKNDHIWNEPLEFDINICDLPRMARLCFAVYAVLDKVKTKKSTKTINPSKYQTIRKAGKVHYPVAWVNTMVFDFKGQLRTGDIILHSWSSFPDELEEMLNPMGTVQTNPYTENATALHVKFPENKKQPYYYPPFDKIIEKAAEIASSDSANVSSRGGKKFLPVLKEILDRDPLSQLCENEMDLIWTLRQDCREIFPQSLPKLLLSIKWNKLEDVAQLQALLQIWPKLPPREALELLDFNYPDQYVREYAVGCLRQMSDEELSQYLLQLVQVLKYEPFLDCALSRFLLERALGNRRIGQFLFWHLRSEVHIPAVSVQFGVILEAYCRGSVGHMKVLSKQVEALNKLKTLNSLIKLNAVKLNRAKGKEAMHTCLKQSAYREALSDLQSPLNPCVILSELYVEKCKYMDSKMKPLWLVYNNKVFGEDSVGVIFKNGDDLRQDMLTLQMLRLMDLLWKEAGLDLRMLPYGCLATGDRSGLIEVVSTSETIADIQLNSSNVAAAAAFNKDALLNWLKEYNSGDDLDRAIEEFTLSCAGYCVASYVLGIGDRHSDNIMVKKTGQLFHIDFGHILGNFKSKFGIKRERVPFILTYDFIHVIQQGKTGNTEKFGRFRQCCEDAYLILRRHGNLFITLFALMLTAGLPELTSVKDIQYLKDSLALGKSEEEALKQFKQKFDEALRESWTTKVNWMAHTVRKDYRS
Sequence of p110β/p85α (P27986 2-724 partner): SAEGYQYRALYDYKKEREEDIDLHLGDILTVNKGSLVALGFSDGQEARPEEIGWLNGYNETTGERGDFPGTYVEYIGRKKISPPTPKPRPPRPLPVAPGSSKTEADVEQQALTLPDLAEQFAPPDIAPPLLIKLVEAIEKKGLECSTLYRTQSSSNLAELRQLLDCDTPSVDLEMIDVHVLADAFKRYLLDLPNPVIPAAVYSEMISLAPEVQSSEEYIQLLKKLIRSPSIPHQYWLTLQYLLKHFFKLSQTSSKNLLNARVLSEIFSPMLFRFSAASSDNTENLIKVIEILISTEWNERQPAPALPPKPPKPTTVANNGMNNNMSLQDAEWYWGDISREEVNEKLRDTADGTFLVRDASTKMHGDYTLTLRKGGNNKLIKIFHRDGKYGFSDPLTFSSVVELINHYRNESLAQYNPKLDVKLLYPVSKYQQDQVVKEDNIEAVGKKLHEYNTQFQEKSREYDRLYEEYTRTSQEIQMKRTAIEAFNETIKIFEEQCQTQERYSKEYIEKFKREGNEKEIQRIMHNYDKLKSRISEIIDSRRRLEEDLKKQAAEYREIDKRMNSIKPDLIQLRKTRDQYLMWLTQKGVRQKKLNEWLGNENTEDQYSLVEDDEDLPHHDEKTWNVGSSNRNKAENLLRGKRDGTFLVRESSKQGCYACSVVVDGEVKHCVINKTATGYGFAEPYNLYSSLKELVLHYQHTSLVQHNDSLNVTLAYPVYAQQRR
Sequence of p110γ (P48736 whole entry, canonical isoform): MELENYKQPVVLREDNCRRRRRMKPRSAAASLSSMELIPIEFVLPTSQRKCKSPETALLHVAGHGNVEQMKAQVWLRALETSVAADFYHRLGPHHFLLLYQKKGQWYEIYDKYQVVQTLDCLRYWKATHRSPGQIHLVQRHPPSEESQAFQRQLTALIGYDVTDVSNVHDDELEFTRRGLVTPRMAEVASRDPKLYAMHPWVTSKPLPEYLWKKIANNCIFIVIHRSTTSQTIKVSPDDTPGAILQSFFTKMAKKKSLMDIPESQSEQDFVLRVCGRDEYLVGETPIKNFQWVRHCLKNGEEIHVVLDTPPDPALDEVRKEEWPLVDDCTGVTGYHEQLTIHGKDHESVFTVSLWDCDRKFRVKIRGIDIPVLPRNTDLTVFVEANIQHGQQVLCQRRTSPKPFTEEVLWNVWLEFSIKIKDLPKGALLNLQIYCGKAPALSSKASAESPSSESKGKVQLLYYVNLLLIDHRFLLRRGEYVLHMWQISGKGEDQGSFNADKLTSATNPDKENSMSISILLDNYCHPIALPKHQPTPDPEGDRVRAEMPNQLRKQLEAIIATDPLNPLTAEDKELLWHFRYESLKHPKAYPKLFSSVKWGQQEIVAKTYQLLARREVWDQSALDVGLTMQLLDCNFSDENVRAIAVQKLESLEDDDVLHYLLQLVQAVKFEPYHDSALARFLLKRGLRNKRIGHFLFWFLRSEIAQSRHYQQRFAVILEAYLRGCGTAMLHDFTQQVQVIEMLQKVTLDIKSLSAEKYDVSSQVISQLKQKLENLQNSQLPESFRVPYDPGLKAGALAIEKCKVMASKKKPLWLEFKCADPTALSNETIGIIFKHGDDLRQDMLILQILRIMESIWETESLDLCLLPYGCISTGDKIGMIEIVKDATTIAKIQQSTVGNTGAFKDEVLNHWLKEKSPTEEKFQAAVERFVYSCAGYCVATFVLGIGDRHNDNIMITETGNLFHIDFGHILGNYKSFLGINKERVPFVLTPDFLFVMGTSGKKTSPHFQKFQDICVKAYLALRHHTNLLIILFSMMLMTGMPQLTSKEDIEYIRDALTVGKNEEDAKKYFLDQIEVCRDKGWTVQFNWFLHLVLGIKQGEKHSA

Consider `C[C@H]1CN(c2nc(N)ncc2Cl)[C@@H]1c1nn2ccc(Cl)c2c(=O)n1-c1ccccc1` [Compound 465], for which, on p110β/p85α, the “PI3Kβ IH % @ 1 uM” value was 45.0%. Besides, on p110δ/p85α, the “PI3Kδ IH % @ 1 uM” value is given as >100% and the IC50 is 8 nM. Also, at p110γ, the “PI3Kγ IH % @ 1 uM” value was 94.1% and the IC50 amounted to 23 nM.
The matching figures for `CC1(C)CN(c2nc(N)ncc2Cl)C1c1nn2ccc(Cl)c2c(=O)n1-c1ccccc1` (stereo not shown) [Compound 466]: 45.4%, >100%, 20 nM, 93.9% and 48 nM.
Take `C[C@H]1CN(c2ncnc3[nH]cc(C#N)c23)[C@@H]1c1nn2ccc(Cl)c2c(=O)n1-c1ccc(F)cc1` [Compound 468]: at p110β/p85α, the “PI3Kβ IH % @ 1 uM” value is 74.0% and the IC50 was determined as 311 nM. Also, at p110δ/p85α, the “PI3Kδ IH % @ 1 uM” value is listed as >100% and the IC50 was 20 nM. Besides, the “PI3Kγ IH % @ 1 uM” value on p110γ amounted to 96.6%.
Regarding `Cc1nc(N)nc(N2C[C@H](C)[C@H]2c2nn3ccc(Cl)c3c(=O)n2-c2ccccc2)n1` [Compound 469], the “PI3Kβ IH % @ 1 uM” value at p110β/p85α is reported as 47.1%. For the same molecule, on p110δ/p85α, the “PI3Kδ IH % @ 1 uM” value is on record as >100% and the IC50 was found to be 19 nM. On p110γ, the “PI3Kγ IH % @ 1 uM” value was found to be 90.5% and the IC50 worked out at 51 nM.
Consider `CC(=O)c1cnc(N)nc1N1CC[C@@H]1c1nn2ccc(Cl)c2c(=O)n1-c1ccccc1` [Compound 470], for which the “PI3Kβ IH % @ 1 uM” value on p110β/p85α is recorded as 4.9%. Also, at p110δ/p85α, the “PI3Kδ IH % @ 1 uM” value stood at 27.8%. For the same molecule, at p110γ, the “PI3Kγ IH % @ 1 uM” value is on record as 36.6%.
Turning to `CC(=O)c1cnc(N)nc1N1CCC1c1nn2ccc(Cl)c2c(=O)n1-c1ccccn1` (stereo not shown) [Compound 474], the “PI3Kβ IH % @ 1 uM” value on p110β/p85α is recorded as 48.3%. Further, on p110δ/p85α, the “PI3Kδ IH % @ 1 uM” value was determined as 99.3% and the IC50 amounted to 7 nM. At p110γ, the “PI3Kγ IH % @ 1 uM” value was 98.2% and the IC50 was 9 nM.
For `C[C@H]1CN(c2ncnc3[nH]cc(C#N)c23)[C@@H]1c1nn2ccc(Cl)c2c(=O)n1-c1ccccn1` [Compound 476], on p110β/p85α, the “PI3Kβ IH % @ 1 uM” value stood at 78.1% and the IC50 was determined as 79 nM. Further, at p110δ/p85α, the “PI3Kδ IH % @ 1 uM” value is 95.9% and the half-maximal inhibitory concentration (IC50) was 1 nM. Besides, at p110γ, the “PI3Kγ IH % @ 1 uM” value was 89.5% and the half-inhibitory concentration (IC50) turned out to be 24 nM.
On to `C[C@H]1CN(c2nc(N)ncc2C#N)[C@@H]1c1nn2ccc(Cl)c2c(=O)n1-c1ccccn1` [Compound 477], for which the “PI3Kβ IH % @ 1 uM” value on p110β/p85α came to 31.7%. Also, on p110δ/p85α, the “PI3Kδ IH % @ 1 uM” value is >100% and the IC50 came out at 58 nM. At p110γ, the “PI3Kγ IH % @ 1 uM” value is reported as 76.1% and the IC50 worked out at 351 nM.
In the case of `Cc1nc(N)nc(N2C[C@H](C)[C@H]2c2nn3ccc(Cl)c3c(=O)n2-c2ccccn2)c1C#N` [Compound 478], at p110β/p85α, the “PI3Kβ IH % @ 1 uM” value is listed as 96.4% and the half-maximal inhibitory concentration (IC50) was 32 nM. On p110δ/p85α, the “PI3Kδ IH % @ 1 uM” value was >100% and the IC50 stood at 1 nM. Also, at p110γ, the “PI3Kγ IH % @ 1 uM” value was >100% and the 50% inhibitory concentration (IC50) worked out at 3 nM.
For `CC(=O)c1cnc(N)nc1N1CC[C@H]1c1nn2ccc(Cl)c2c(=O)n1-c1cccc(C)n1` [Compound 479], at p110β/p85α, the “PI3Kβ IH % @ 1 uM” value came to 20.1%. Further, at p110δ/p85α, the “PI3Kδ IH % @ 1 uM” value was determined as 91.6% and the half-maximal inhibitory concentration (IC50) is 10 nM. At p110γ, the “PI3Kγ IH % @ 1 uM” value turned out to be 94.7% and the IC50 is 120 nM.
As to `N#Cc1c(N)nc(N)nc1N1CCC1c1nn2ccc(Cl)c2c(=O)n1-c1ccccc1` (stereo not shown) [Compound 482], on p110β/p85α, the “PI3Kβ IH % @ 1 uM” value worked out at 91.9% and the IC50 came to 266 nM. In addition, on p110δ/p85α, the “PI3Kδ IH % @ 1 uM” value is listed as >100% and the IC50 amounted to 1 nM. At p110γ, the “PI3Kγ IH % @ 1 uM” value is listed as >100% and the half-inhibitory concentration (IC50) came out at 7 nM.
`CC(=O)c1cnc(N)nc1N1CC(C)(C)[C@H]1c1nn2ccc(Cl)c2c(=O)n1-c1ccccc1` [Compound 485, (S)-2-(1-(5-acetyl-2-aminopyrimidin-4-yl)-3,3-dimethylazetidin-2-yl)-5-chloro-3-phenylpyrrolo[2,1-f][1,2,4]triazin-4(3H)-one]: the “PI3Kβ IH % @ 1 uM” value on p110β/p85α is −2.1%. Besides, on p110δ/p85α, the “PI3Kδ IH % @ 1 uM” value was >100% and the half-inhibitory concentration (IC50) came to 96 nM. Moreover, the “PI3Kγ IH % @ 1 uM” value on p110γ was found to be 45.2%.
For the molecule `N#Cc1c[nH]c2ncnc(N3CC[C@H]3c3nn4ccc(C(F)(F)F)c4c(=O)n3-c3ccccc3)c12` [Compound 488], the “PI3Kβ IH % @ 1 uM” value at p110β/p85α came to 29.1%. Further, on p110δ/p85α, the “PI3Kδ IH % @ 1 uM” value was 95.9% and the IC50 was found to be 18 nM. Further, at p110γ, the “PI3Kγ IH % @ 1 uM” value was 87.3% and the IC50 was 63 nM.
In the same order, the values of `C[C@H]1CN(c2nc(N)ncc2C#N)[C@@H]1c1nn2ccc(C(F)(F)F)c2c(=O)n1-c1ccccc1` [Compound 490] are 33.4%, 96.6%, 54 nM, >100% and 15 nM.
The matching figures for `Cc1nc(N)nc(N2CC[C@H]2c2nn3ccc(C#N)c3c(=O)n2-c2ccccc2)c1C#N` [Compound 497, (S)-2-(1-(2-amino-5-cyano-6-methylpyrimidin-4-yl)azetidin-2-yl)-4-oxo-3-phenyl-3,4-dihydropyrrolo[2,1-f][1,2,4]triazine-5-carbonitrile]: 67.6%, >100%, 6 nM, 91.1% and 11 nM.
Regarding `Cc1nc(N)nc(N2C[C@H](C)[C@H]2c2nn3ccc(C#N)c3c(=O)n2-c2ccccc2)c1C#N` [Compound 499], on p110β/p85α, the “PI3Kβ IH % @ 1 uM” value is listed as 86.1% and the half-inhibitory concentration (IC50) is 84 nM. Further, on p110δ/p85α, the “PI3Kδ IH % @ 1 uM” value is on record as >100% and the IC50 was determined as 2 nM. Further, on p110γ, the “PI3Kγ IH % @ 1 uM” value amounted to 96.0% and the half-inhibitory concentration (IC50) stood at 5 nM.
With `CC(=O)c1cnc(N)nc1N1C[C@H](C)[C@H]1c1nn2ccc(C#N)c2c(=O)n1-c1ccccc1` [Compound 500], on p110β/p85α, the “PI3Kβ IH % @ 1 uM” value is on record as 71.5% and the IC50 came to 674 nM. Moreover, at p110δ/p85α, the “PI3Kδ IH % @ 1 uM” value was found to be 95.4% and the IC50 came to 6 nM. Moreover, on p110γ, the “PI3Kγ IH % @ 1 uM” value is reported as 98.7% and the IC50 turned out to be 7 nM.
For `C[C@H]1CN(c2nc(N)ncc2C#N)[C@@H]1c1nn2ccc(C#N)c2c(=O)n1-c1ccccc1` [Compound 501], the “PI3Kβ IH % @ 1 uM” value on p110β/p85α is 24.0%. Also, on p110δ/p85α, the “PI3Kδ IH % @ 1 uM” value is reported as 91.8% and the IC50 was 78 nM. Besides, the “PI3Kγ IH % @ 1 uM” value on p110γ is recorded as >100%.
`Cc1nc(N)nc(N2CC[C@H]2c2nn3c(C)cc(Cl)c3c(=O)n2-c2ccccc2)c1C#N` [Compound 502]: the “PI3Kβ IH % @ 1 uM” value at p110β/p85α is on record as 33.6%. The “PI3Kδ IH % @ 1 uM” value on p110δ/p85α came out at 66.2%. In addition, the “PI3Kγ IH % @ 1 uM” value at p110γ is on record as 66.4%.
In the same order, the values of `CC(=O)c1cnc(N)nc1N1CC[C@H]1c1nn2c(C)cc(Cl)c2c(=O)n1-c1ccccc1` [Compound 503] are 6.2%, 49.2% and 63.0%.
On to `C[C@H]1CN(c2nc(N)nc(N)c2C#N)C1c1nn2ccc(Cl)c2c(=O)n1-c1cccc(F)c1` (stereo partly shown) [Compound 504], for which, on p110β/p85α, the “PI3Kβ IH % @ 1 uM” value came to 75.6% and the IC50 is 121 nM. In addition, on p110δ/p85α, the “PI3Kδ IH % @ 1 uM” value is on record as >100% and the concentration for half-maximal inhibition (IC50) came out at 2 nM. In addition, on p110γ, the “PI3Kγ IH % @ 1 uM” value is listed as >100% and the IC50 was 2 nM.
